How the values were obtained:
6His-hFADS2 [1] = molecular target: T1, 6His-hFADS2 (Homo sapiens, UniProt Q8NFF5); assay: flavin fluorescence of protein band on SDS-PAGE under UV; assay type: biochemical; conditions: tightly but not covalently bound, 1 mol FAD per monomer; fluorescence lost on transfer to apo-Me2GlyDH
T1 construct: gene FLAD1; recombinant 6His-tagged cytosolic isoform 2, purified

6His-apo-Me2GlyDH = molecular target: T2, 6His-apo-Me2GlyDH (Rattus norvegicus, UniProt Q63342); assay: as above; assay type: binding; conditions: covalent; 20 μM FAD, 50 mM Tris-HCl pH 7.5, 5 mM MgCl2, 5 mM ATP, 0.5% Triton X-100, 37°C; stimulated by rat liver mitochondrial matrix
T2 construct: gene Dmgdh; 6His-tagged, E. coli, purified apo-form
T2 sequence (Q63342 44-857): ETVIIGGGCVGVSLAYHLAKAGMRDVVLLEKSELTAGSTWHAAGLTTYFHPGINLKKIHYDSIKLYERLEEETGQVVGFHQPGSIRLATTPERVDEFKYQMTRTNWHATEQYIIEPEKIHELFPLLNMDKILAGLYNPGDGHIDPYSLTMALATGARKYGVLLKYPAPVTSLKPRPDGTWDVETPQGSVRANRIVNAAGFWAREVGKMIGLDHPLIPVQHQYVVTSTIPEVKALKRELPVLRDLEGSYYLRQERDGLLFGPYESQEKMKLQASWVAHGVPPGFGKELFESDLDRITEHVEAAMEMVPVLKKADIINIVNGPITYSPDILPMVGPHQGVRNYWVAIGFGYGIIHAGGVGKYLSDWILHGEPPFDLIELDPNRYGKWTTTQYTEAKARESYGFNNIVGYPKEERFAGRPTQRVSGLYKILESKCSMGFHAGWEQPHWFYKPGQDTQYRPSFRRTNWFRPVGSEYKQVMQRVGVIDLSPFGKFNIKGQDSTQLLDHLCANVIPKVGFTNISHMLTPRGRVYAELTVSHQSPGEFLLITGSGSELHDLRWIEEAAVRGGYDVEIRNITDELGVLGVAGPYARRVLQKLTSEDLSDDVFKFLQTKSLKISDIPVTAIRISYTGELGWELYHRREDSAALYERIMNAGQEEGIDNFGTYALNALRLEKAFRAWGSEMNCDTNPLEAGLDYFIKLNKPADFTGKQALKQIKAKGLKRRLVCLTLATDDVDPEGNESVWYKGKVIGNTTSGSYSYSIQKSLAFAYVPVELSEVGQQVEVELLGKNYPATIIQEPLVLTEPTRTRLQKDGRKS

6His-hFADS2 [2] = molecular target: T1, 6His-hFADS2; assay: spectrofluorimetric FAD synthesis assay, Dixon plot; assay type: biochemical; conditions: 50 mM Tris-HCl pH 7.5, 5 mM MgCl2, 37°C; product inhibition: competitive vs FMN, non-competitive vs ATP

T1 sequence (Q8NFF5 98-587 limits assumed): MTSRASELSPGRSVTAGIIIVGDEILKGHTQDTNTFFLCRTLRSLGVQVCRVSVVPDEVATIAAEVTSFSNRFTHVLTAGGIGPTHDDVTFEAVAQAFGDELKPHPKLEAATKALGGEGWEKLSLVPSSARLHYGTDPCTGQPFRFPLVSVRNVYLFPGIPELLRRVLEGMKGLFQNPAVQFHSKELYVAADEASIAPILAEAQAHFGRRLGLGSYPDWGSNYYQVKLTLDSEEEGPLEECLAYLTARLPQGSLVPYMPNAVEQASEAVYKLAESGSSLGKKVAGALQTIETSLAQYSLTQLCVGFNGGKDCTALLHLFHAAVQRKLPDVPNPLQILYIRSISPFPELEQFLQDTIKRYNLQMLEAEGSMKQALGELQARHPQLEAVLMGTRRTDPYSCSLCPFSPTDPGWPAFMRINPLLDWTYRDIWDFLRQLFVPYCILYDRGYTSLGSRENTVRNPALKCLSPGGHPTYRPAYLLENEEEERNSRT

SMILES: Cc1cc2nc3c(=O)[nH]c(=O)nc-3n(C[C@H](O)[C@H](O)[C@H](O)COP(=O)(O)OP(=O)(O)OC[C@H]3O[C@@H](n4cnc5c(N)ncnc54)[C@H](O)[C@@H]3O)c2cc1C [FAD]
- flavin fluorescence of protein band on SDS-PAGE under UV (6His-hFADS2 [1]): hFADS loses its fluorescence upon incubation with apo-Me2GlyDH
- flavin fluorescence of protein band on SDS-PAGE under UV (6His-apo-Me2GlyDH): mitochondrial matrix is able to stimulate apo-Me2GlyDH flavinylation

SMILES: O=P(O)(O)OP(=O)(O)O [PPi]
- spectrofluorimetric FAD synthesis assay, Dixon plot (6His-hFADS2 [2]): the inhibition by PPi against FMN is consistent with competitive inhibition
